From publication PMC12655529, “Serendipitous Hinge Modulation Hypothetically Reprograms Caerin 1.1-LC Antibacterial Mechanism and Gram-Negative Selectivity” (Pharmaceutics, 2025)
Ends that are not written are not given here.

Legend:
[1] = tested on: Escherichia coli ATCC 8739; format: cell-based; conditions: ATCC 8739
Protocol: (§1) The antimicrobial activities of the peptides were evaluated by determining their minimal inhibitory concentration (MIC) and minimal bactericidal concentration (MBC) values following reported protocols [20]. The tested microorganisms included seven Gram-negative bacterial strains (Escherichia coli ATCC 8739, E. coli ATCC-BAA 2340, E. coli NCTC 13846, Klebsiella pneumoniae ATCC 43816, K. pneumoniae ATCC BAA-2342, Pseudomonas aeruginosa ATCC 9027, Acinetobacter baumannii ATCC BAA-747), three Gram-positive bacterial strains (Staphylococcus aureus ATCC 6538, Enterococcus faecalis NCTC 12697, MRSA NCTC 12493, and the fungal strain Candida albicans ATCC 10231. For the assay, each bacterial strain was cultured overnight at 37 °C in 100 mL of medium in a flask. The cultures were then subcultured to reach the logarithmic growth phase and diluted to 5 × 10^5 CFU/mL. Peptide samples were serially diluted two-fold in microplates, with concentrations ranging from 128 μM to 1 μM. The diluted bacterial suspensions were mixed with the peptide solutions and incubated overnight at 37 °C. The MIC values were determined by measuring the absorbance of each well using a Synergy HT plate reader (Agilent, Cheshire, UK). For MBC determination, aliquots from wells showing no visible growth were inoculated onto agar plates to assess bacterial viability. Each experiment was repeated independently three times and conducted in three independent replicates.

[2] = tested on: Pseudomonas aeruginosa ATCC 9027; format: cell-based
Protocol: as §1

MRSA NCTC 12493 = format: cell-based, Staphylococcus aureus
Protocol: as §1

horse red blood cells = assay: Haemolysis assay; format: cell-based; conditions: concentration inducing 10% haemolysis of horse erythrocytes; 4% (v/v) in PBS, 2 h, 37 °C, absorbance 570 nm; no haemolysis at maximum testing concentration (128 μM) recorded as 256 μM
Protocol: The peptide cytotoxicity against mammalian erythrocytes was evaluated by haemolysis assay on horse red blood cells (E&O Laboratories Ltd., Falkirk, UK). Fresh horse blood was washed three times with PBS and resuspended to a final concentration of 4% (v/v) in PBS. The diluted blood suspension was then mixed with peptide solutions at varying concentrations and incubated for 2 h at 37 °C. Red blood cell suspensions treated with 0.1% Triton X-100 and PBS were used as controls. The Triton X-100-treated suspension was the positive control (for 100% haemolysis), while the PBS-treated suspension was the blank control. Following incubation, the mixtures were centrifuged at 1000× g for 10 min to separate erythrocytes from the supernatant. The absorbance of the supernatants was detected at 570 nm. The percentage haemolysis was calculated by following the equationPercentage Haemolysis = (AbsSample − AbsBlank)/(AbsPositive − AbsBlank) × 100%

E. coli ATCC BAA-2340 = format: cell-based, Escherichia coli
[3] = tested on: Acinetobacter baumannii ATCC BAA-747; format: cell-based; conditions: ATCC BAA-747
Protocol: as §1

[4] = tested on: K. pneumoniae ATCC BAA-2342; format: cell-based, Klebsiella pneumoniae
Protocol: as §1

E. coli NCTC 13846 = format: cell-based, Escherichia coli
[5] = tested on: Enterococcus faecalis NCTC 12697; format: cell-based; conditions: NCTC 12697
Protocol: as §1

Gram-negative bacteria = assay: Geometric mean MIC and therapeutic index, Gram-negative; format: cell-based; conditions: geometric mean of MICs
[6] = tested on: Staphylococcus aureus ATCC 6538; format: cell-based; conditions: ATCC 6538
Protocol: as §1

Gram-positive bacteria = assay: Geometric mean MIC and therapeutic index, Gram-positive; format: cell-based; conditions: geometric mean of MICs
[7] = tested on: Klebsiella pneumoniae ATCC 43816; format: cell-based; conditions: ATCC 43816
E. coli (ATCC-BAA 2340) = format: cell-based, Escherichia coli; conditions: ATCC-BAA 2340
Protocol: The peptide sensitivity was determined in different salt- and serum-containing environments. Bacterial strains were prepared following the MIC detection protocol described previously. To evaluate peptide sensitivity under physiological conditions, various concentrations of salt ions (150 mM NaCl, 4.5 mM KCl, 2 mM CaCl2, 1 mM MgCl2, 8 µM ZnCl2, 6 µM NH4Cl, or 4 µM FeCl3) and serum (10% FBS) were prepared in McCartney bottles prior to the addition of bacterial suspensions. The subcultured bacterial suspensions were then introduced to these modified media conditions. For MIC determination, the treated bacterial suspensions were diluted and dispensed into 96-well plates containing peptide solutions at graded concentrations. This assay allowed for the detection of potential alterations in MIC values, serving as an indicator of peptide sensitivity under different physiological conditions. All experiments were independently repeated three times, each with three replicates.

Substance | MBC, E. coli (ATCC 8739) [1] | MIC, E. coli (ATCC 8739) [1] | MBC, P. aeruginosa (ATCC 9027) [2] | MIC, P. aeruginosa (ATCC 9027) [2] | MBC, MRSA (NCTC 12493) (MRSA NCTC 12493) | MIC, MRSA (NCTC 12493) (MRSA NCTC 12493) | HC10 (horse red blood cells) | MBC, E. coli (ATCC BAA-2340) (E. coli ATCC BAA-2340) | MIC, E. coli (ATCC BAA-2340) (E. coli ATCC BAA-2340) | MBC, A. baumannii (ATCC BAA-747) [3] | MIC, A. baumannii (ATCC BAA-747) [3] | MBC, K. pneumoniae (ATCC BAA-2342) [4] | MIC, K. pneumoniae (ATCC BAA-2342) [4] | MBC, E. coli (NCTC 13846) (E. coli NCTC 13846) | MIC, E. coli (NCTC 13846) (E. coli NCTC 13846) | MBC, E. faecalis (NCTC 12697) [5] | MIC, E. faecalis (NCTC 12697) [5] | GM MIC Gram-Negative (Gram-negative bacteria) | MBC, S. aureus (ATCC 6538) [6] | MIC, S. aureus (ATCC 6538) [6] | other results
GLLSVLGSLKLIVPHWWPLIAEKL-NH2 [Caerin 1.1-LC PHWWP] | 64 µM | 32 µM | >128 µM | >128 µM | >128 µM | >128 µM | 256 µM | 32 µM | 16 µM | >128 µM | >128 µM | >128 µM | >128 µM | 128 µM | 64 µM | >128 µM | >128 µM | 105 µM | >128 µM | >128 µM | GM MIC Gram-Positive (Gram-positive bacteria): 256 µM; MBC, K. pneumoniae (ATCC 43816) [7]: >128 µM; MIC, K. pneumoniae (ATCC 43816) [7]: >128 µM
GLLSVLGSLKKIVPHVVPWIAKKL-NH2 [Caerin 1.1-LC 11K.12K.19W] | 2 µM | 2 µM | 4/4 µM | 4/4 µM | 2 µM | 2 µM | 10.5 µM | 2 µM | 2 µM | 4 µM | 4 µM | 4 µM | 4 µM | 4 µM | 2 µM | 32 µM | 16 µM | 4 µM | 2 µM | 2 µM | MIC, Ca^2+ (E. coli (ATCC-BAA 2340)): 8 µM; MIC, Control (E. coli (ATCC-BAA 2340)): 4 µM; MIC, FBS (E. coli (ATCC-BAA 2340)): 8 µM; MIC, Fe^3+ (E. coli (ATCC-BAA 2340)): 4 µM; MIC, K^+ (E. coli (ATCC-BAA 2340)): 4 µM; MIC, Mg^2+ (E. coli (ATCC-BAA 2340)): 4 µM; MIC, NH4^+ (E. coli (ATCC-BAA 2340)): 4 µM; MIC, Na^+ (E. coli (ATCC-BAA 2340)): 4 µM; GM MIC Gram-Positive (Gram-positive bacteria): 2.97 µM; MBC, K. pneumoniae (ATCC 43816) [7]: 4 µM; MIC, K. pneumoniae (ATCC 43816) [7]: 4 µM
GLLSVLGSLKKIVPKAVPKIAEKL-NH2 [Caerin 1.1-LC 11K.19K.PKAVP] | 8 µM | 8 µM | 64 µM | 32 µM | 64 µM | 64 µM | 256 µM | 8 µM | 8 µM | 128 µM | 128 µM | >128 µM | >128 µM | 2 µM | 2 µM | >128 µM | >128 µM | 26.08 µM | >128 µM | >128 µM | GM MIC Gram-Positive (Gram-positive bacteria): 161.5 µM; MBC, K. pneumoniae (ATCC 43816) [7]: 64 µM; MIC, K. pneumoniae (ATCC 43816) [7]: 64 µM
GLLSVLGSLKLIVPHLLPLIAEKL-NH2 [Caerin 1.1-LC PHLLP] | 8 µM | 4 µM | 64 µM | 32 µM | 4 µM | 4 µM | 1.6 µM | 4 µM | 4 µM | 8 µM | 4 µM | 16 µM | 8 µM | 4 µM | 4 µM | 32 µM | 32 µM | 8 µM | 4 µM | 4 µM | GM MIC Gram-Positive (Gram-positive bacteria): 6.56 µM; MBC, K. pneumoniae (ATCC 43816) [7]: 8 µM; MIC, K. pneumoniae (ATCC 43816) [7]: 8 µM
GLLSVLGSLKLIVAHVVALIAEKL-NH2 [Caerin 1.1-LC 2P-2A] | >128 µM | >128 µM | >128 µM | >128 µM | >128 µM | >128 µM | 256 µM | >128 µM | >128 µM | >128 µM | >128 µM | >128 µM | >128 µM | >128 µM | >128 µM | >128 µM | >128 µM | 256 µM | >128 µM | >128 µM | GM MIC Gram-Positive (Gram-positive bacteria): 256 µM; MBC, K. pneumoniae (ATCC 43816) [7]: >128 µM; MIC, K. pneumoniae (ATCC 43816) [7]: >128 µM
